Literature values, collected in publication PMC7094870 (ACS chemical biology, 2020).

Test system: platinum resistant ovarian cancer and non-small cell lung cancer
Details: patients; cited from earlier work

COc1ccc(C[C@H]2NC(=O)/C=C/C[C@@H]([C@H](C)[C@H]3O[C@@H]3c3ccccc3)OC(=O)[C@H](CC(C)C)OC(=O)C(C)(C)CNC2=O)cc1Cl [cryptophycin-52]
dose limiting toxicity in clinical trials: dose limiting peripheral neuropathy
